In US20040138094A1, “Treatment regimes” (priority 2003, published 2004):

Experiments:
[1] = test system: ABCA1 mRNA in THP1 macrophages; experiment: ABCA1 mRNA expression by RTQ-PCR in THP1 macrophages; format: cell-based, human; conditions: for Induction of ABCA1 mRNA expression (in words): THP1 macrophages, 100 nM, FIG. 1A
Description: (§1) THP1 human monocyte cells (ATCC TID-202), in 6-well plates at a density of 1×10^6 cells/well in RPMI 1640 medium containing 10% FBS, were differentiated into macrophages by treatment with PMA (100 ng/ml) for 5 days. 1BR3N human skin fibroblasts (ECACC 90020508) and FHS74 human intestinal cells (ATCC CCL-241) were plated in 6 well plates at a density of 1×10^6 cells/well in the recommended maintenance media. Cells were treated with vehicle (0.1% DMSO) or test compound for 48 h prior to harvesting. Total RNA was generated using the Qiagen RNeasy Mini Kit and DNase treated according to the manufacturer's protocol (Ambion). ABCA1 expression was analysed using RTQ-PCR on an ABI PRISM 7700 sequence detection system (P. E. Applied Biosystems). Primer/probe sequences used were as follows: ABCA1 forward primer 5′-[…]-3′, (Seq ID No:1) reverse primer 5′-[…]-3′, (Seq ID No:2) probe 5′FAM-[…]-TAMRA3′ (Seq ID No:3) Expression data were normalised to 18S as described by the vendor.

THP1 macrophages = experiment: ApoA1-specific cholesterol efflux from THP1 macrophages; format: cell-based, human
Description: (§2) Following differentiation to macrophages, THP1 cells were washed in serum-free medium and incubated in 5% FBS medium containing 1 μCi/mL of [^3H]-cholesterol (New England Nuclear) and 0.2% fatty acid-free BSA (faf BSA) for a further 24 h. The cells were washed in serum-free medium and then incubated for 24 h in serum-free medium supplemented with 1.5% faf BSA±test compound or vehicle (0.1% DMSO). The equilibration medium was removed and the cells washed twice in serum-free medium. Serum-free DMEM containing compound±purified human apolipoprotein (apo) Al ([…], Athens Research & Technology) was added. The cells were maintained for 24 h before medium and cell extract samples were generated. Scintillation counting was performed to determine the percentage cellular cholesterol efflux±apoAl. 1BR3N human skin fibroblast cells were plated in 6-well plates at a density of 1×10^6 cells/well in DMEM medium containing 10% FBS and cultured for 24 h. Efflux studies were performed as in the THP1 macrophages except that the cells were maintained for 48 h before scintillation counting was performed.

[2] = test system: ABCA1 mRNA in 1BR3N human skin fibroblasts; experiment: ABCA1 mRNA expression by RTQ-PCR in 1BR3N human skin fibroblasts; format: cell-based
Description: as §1

[3] = test system: ABCA1 mRNA in FHS74 human intestinal cells; experiment: ABCA1 mRNA expression by RTQ-PCR in FHS74 human intestinal cells; format: cell-based
Description: as §1

[4] = test system: 1BR3N human skin fibroblasts; experiment: ApoA1-specific cholesterol efflux from 1BR3N human skin fibroblasts; format: cell-based
Description: as §2

ABCA1 in macrophages = conditions: 50 μM, reported in ref 16; cited from earlier work
macrophages = conditions: 50 μM, reported in ref 16; cited from earlier work
[5] = THP1 macrophages, 100 nM, FIG. 1B

CC(C)(Sc1ccc(CCN(CCCCC2CCCCC2)C(=O)NC2CCCCC2)cc1)C(=O)O [GW7647, reference compound]
Induction of ABCA1 mRNA expression (in words) [1]: only a weak effect | Effect on cholesterol efflux (in words) (THP1 macrophages; [5]): ineffective

COC(=O)c1ccccc1N[C@@H](Cc1ccc(OCCc2nc(-c3ccccc3)oc2C)cc1)C(=O)O [GW7845, reference compound]
Induction of ABCA1 mRNA expression (in words) [1]: also induced ABCA1 expression | Effect on cholesterol efflux (in words) (THP1 macrophages; [5]): ineffective

Cc1cc(SCc2sc(-c3ccc(C(F)(F)F)cc3)nc2C)ccc1OCC(=O)O [GW501516, 2-(2-methyl-4[({4-methyl-2[4-(trifluoromethyl)phenyl]-1,3-thiazol-5-yl}methyl)sulfanyl]phenoxy}acetic acid]
ABCA1 mRNA (% increase) ([1]; THP1 macrophage, 48 h, (GW-vehicle)/vehicle × 100, mean ± S.D., triplicate): 460 ± 150% | Induction of ABCA1 mRNA expression (in words) [1]: strong induction | ABCA1 mRNA (% increase) ([2]; 1BR3N fibroblast, 48 h, (GW-vehicle)/vehicle × 100, mean ± S.D., triplicate): 240 ± 25% | Increase in ABCA1 expression ([2]; 1BR3N human skin fibroblasts): 3.4 fold | Increase in ABCA1 expression ([3]; FHS74 human intestinal cells): 2.1 fold | ABCA1 mRNA (% increase) ([3]; FHS74 intestinal, 48 h, (GW-vehicle)/vehicle × 100, mean ± S.D., triplicate): 115 ± 30% | Cholesterol efflux (% increase) (THP1 macrophages; THP1 macrophage, (GW-vehicle)/vehicle × 100, mean ± S.D., triplicate): 100 ± 15% | Increase in cholesterol efflux to apoA1 (THP1 macrophages; [5]): 2 fold | Cholesterol efflux (% increase) ([4]; 1BR3N fibroblast, (GW-vehicle)/vehicle × 100, mean ± S.D., triplicate): 110 ± 10% | Increase in apoA1-specific cholesterol efflux ([4]; 1BR3N human skin fibroblasts): 2 fold

Cc1cccc(Nc2cc(Cl)nc(SCC(=O)O)n2)c1C [Wy14,643]
ABCA1 expression (in words) (ABCA1 in macrophages): induces | Cholesterol efflux from macrophages (in words) (macrophages): induces
